Data from US7122335B1, “Compounds and methods to enhance rAAV transduction” (priority 1999, dated 2006).
Entries after “also recorded” stand apart in the source; their conditions may differ. Counter-ions that a name gives are not always drawn. Like-named read-outs stand apart in the source and are kept apart here. Peptide text beside a SMILES is read from it.

What was measured:
Assay type in all cases: cell-based
[1] = system: primary human fibroblasts
Procedure: FIG. 6. Primary confluent fibroblasts were infected with AV.GFP3ori virus at an MOI=1000 particles/cell following treatment with brefeldin A (10 μg/ml), vinblastine (22 μM), cytochalasin B (1 μM), NH4Cl (2 mM), chloroquine (20 μm), LLnL (400 μM), and Z-LLL (4 μM), final concentration indicated in brackets. Cells were harvested at 96 hours post-infection and the transduction efficiency was compared to untreated rAAV infected cells by FACS analysis for GFP expression. To control for non-specific effects caused by toxicity of the compounds, the percentage of live cells was also assessed by the absence of propidium iodide incorporation.
80% confluent human primary fibroblasts were infected with AV.GFP3ori at an moi of 1000 DNA particles/cell. FIG. 16A depicts GFP transgene expression in the absence (left photographs) and presence of 40 μM LLnL (right photographs) at 96 hours post-infection. […] Top and bottom panels represent bright field and FITC-channel fluorescent photomicrographs, respectively. The mean (+/−SEM, N=3) percentage of cells transduced with rAAV, as measured by FACS sorting of GFP expressing cells, is presented in the bar graph of FIG. 16B. […] In this study, rAAV from infected cells was first immunoprecipitated with anti-VP1,2,3 (AAV-2 capsid) monoclonal antibody followed by Western blot detection of ubiquitin side chains using an anti-ubiquitin monoclonal antibody. […] Epithelia were infected with AV.GFP3ori (10,000 particles/cell) from the basolateral surface following treatment with ubiquitin ligase inhibitor dipeptides (0.2 mM H-Leu-Ala-OH and 0.2 mM H-His-Ala-OH).
Initial studies were performed in confluent primary human fibroblasts since dose titrations and toxicity could be quickly assessed. Selected compounds were used to treat fibroblast monolayers prior to rAAV infection. rAAV transduction was assessed at 96 hours post-infection by FACS analysis, and the percentage of dead cells was simultaneously assessed by incorporation of propidium iodide.
These tripeptides are structurally related to chloroquine but have different lipid solubility and specificity for cysteine proteases (Seglen, 1983). These molecules decrease endosomal degradation of molecules by a mechanism different than altering pH.
Transduction of polarized airway epithelial cells and primary human fibroblasts. rAAV infection of fully differentiated bronchial cells was performed as described in Duan et al. (1998). For infections from the apical surface of the airway cells, 5 μl rAAV was mixed with 50 μl of culture media and applied directly onto the apical compartment of Millicell inserts (MOI=10,000 particles/cell). During apical infection, the basolateral side of the Millicell was continuously bathed in culture media. Gene transfer to the basal side was performed by inverting Millicell inserts and applying viral vector to the bottom of the supporting filter membrane in a 50 μl volume for 2 hours. Subsequently, Millicell inserts were returned to the upright position, in the continued presence of the original viral inoculum plus an additional 450 μl of media. For both apical and basolateral infections, rAAV containing media was removed after 24 hours and replaced with either fresh culture media (for the basal side) or exposed to air (for the apical side). To test the effect of different agents on the efficiency of AAV transduction in polarized airway cells, 1 μl of each solution was mixed with AAV prior to infection of airway epithelia. Agents were usually presented during the 24 hours AAV infection period unless indicated otherwise.

[2] = system: human bronchial epithelia; experiment: Southern blot of Hirt DNA for rAAV genomes in polarized airway epithelia; conditions: hypotonic EGTA treatment alone, apical infection
Procedure: FIGS. 15A–C. Examination of rAAV endocytosis by Southern blot analysis of viral DNA. Hirt DNA from AV.GFP3ori infected or mock infected (Lanes 1 and 7 in both FIGS. 15A and 15B) human bronchial epithelia were extracted for a direct examination of viral genomes by Southern blotting against a P^32-labeled EGFP probe. FIG. 15A depicts viral binding studies in the presence and absence of LLnL with or without EGTA treatment prior to apical or basolateral infection for 1 hour at 4° C. Cell surface-bound virus was completely removed by trypsin (FIG. 15A, lanes 2 through 6). To determine the amount of the surface-bound rAVV, cells were infected with AV.GFP3ori for 1 hour at 4° C. and were not treated with trypsin prior to Hirt DNA extraction. Panel A: lane 8: apical AAV infection; lane 9: apical AAV infection in the presence of LLnL; lane 10: cells were pre-treated with hypotonic EGTA prior to apical infection in the presence of LLnL; lane 11: basolateral infection; lane 12: basolateral infection in the presence of LLnL. FIG. 15B depicts the results of studies evaluating rAAV internalization from either the apical or the basolateral surface in the presence or absence of LLnL, and the internalization from the apical surface after combined treatment with hypotonic EGTA and LLnL. To detect the net amount of the internalized viral genome, all samples in FIG. 15B were treated with trypsin just before Hirt DNA was harvested. The extent of the internalized virus at 4 hours (FIG. 15B, lanes 2 through 6) and 24 hours (FIG. 15B, lanes 8 through 12) incubation at 37° C. after infection is represented by the intensity of the 1.6 kb single stranded viral genome band. FIG. 15B; lane 2; apical AAV infection for 4 hours; lane 3: apical AAV infection in the presence of LLnL for 4 hours; lane 4: cells were pre-treated with hypotonic EGTA prior to apical infection in the presence of LLnL for 4 hours; lane 5: basal infection for 4 hours; lane 6: basolateral infection in the presence of LLnL for 4 hours; lane 8: apical infection for 24 hours; lane 9: apical infection in the presence of LLnL for 24 hours; lane 10: cells were pre-treated with hypotonic EGTA prior to apical infection in the presence of LLnL for 24 hours; lane 11: basolateral infection for 24 hours; lane 12: basolateral infection in the presence of LLnL for 24 hours. […]
Molecular analysis of rAAV viral genomes owing infection of polarized airway epithelial cultures. […] Following binding, the extent of viral internalization was assessed by continuing incubations in the presence of virus at 37° C. for 4–24 hours. […] The 1.6 kb single stranded viral DNA, the 2.7 kb double stranded circular intermediate, and the 4.7 kb double stranded replication from viral genome were detected with a transgene EGFP specific probe at 5×10^6 cpm/ml. […]

[3] = system: polarized human bronchial epithelial cells; conditions: for rAAV transduction from the basolateral surface with ubiquitin ligase (E3) inhibitors: both dipeptides combined, 2 mM pretreatment 60 minutes, 0.2 mM during 24 hours infection; for rAAV transduction from the apical (mucosal) surface, in words: apical infection, agent at time of infection (LLnL 40 μM)
Procedure: FIGS. 7A and 7B. Proteasome inhibitors differentially augment rAAV transduction from the apical or basolateral surfaces of airway epithelia. The efficiency and time course of rAAV transduction were evaluated in polarized airway epithelial cultures following infection with rAV.GFPori3 (MOI=10,000 particles/cell) in the presence or absence of 40 μM LLnL. Transgene expression was monitored by indirect fluorescence microscopy at the indicted time points by quantifying the mean number of GFP positive cells per 10× field (mean +/−SEM of 3 independent samples for each time point). The effect of LLnL treatment was compared between matched sets of tissue samples at each time point following infection from the apical (FIG. 7A) or basolateral (FIG. 7B) surfaces. The photomicrographs on the right side of each figure illustrate representative 20× fields for the 3 and 22 day post-infection time points.
FIG. 9. Effects of different agents on AAV transduction from the basal surface of polarized bronchial epithelia. Fully differentiated human bronchial airway epithelia were treated with the indicated agents at the time of AAV infection (MOI=10,000 particles/cell) from the basolateral surface. […] Since most of the tested agents (except for hydroxyurea) were dissolved in DMSO, a vehicle control of 1% (vol/vol) DMSO was also performed to exclude the possibility of a non-specific effect. GFP expression was monitored at 48 hours post-infection by counting the number of GFP positive cells per 10 random 10× fields in the culture dishes. The data represent the mean +/−SEM of three independent infections for each tested chemical.
FIG. 10. The proteasome inhibitor LLnL preferentially induces AAV transduction in ciliated cells. The cell types transduced by AAV were examined by alkaline phosphatase staining 3 days following basolateral infection of polarized epithelial cultures with AV.Alkphos infection (MOI=10,000 particles/cell) in the presence of or absence of 40 μM LLnL. […] 8 μm paraffin sections were used to histologically quantify the types of cells transduced. Three classifications were used, ciliated cells (with alkphos expression localized to the apical membrane and cilia), basal cells residing in the lower half of the epithelium with no contact with the lumen, and non-ciliated, columnar cells. Panel C (without LLnL) and D (with LLnL) show representative neutral red counter-stained cross-sections for each condition. The numbers of alkphos stained cells/2000 epithelial cells for the various cell types transduced by AAV are presented in panel E (mean +/−SEM from three independent Millicell insert samples).
FIGS. 11A and 11B. Optimization of LLnL-enhanced transduction in polarized bronchial epithelia. Differentiated transwell cultures were infected with AV.GFP3ori (10,000 particles/cell) from either the basolateral (FIG. 11A) or the apical (FIG. 11B) surface with the indicated treatments involving LLnL and/or EGTA. All infections were carried out for 24 hours and GFP transgene expression was monitored by indirect fluorescent microscopy at the indicated times. Data represent the mean (+/−SEM, N=6) for each experimental condition. Experiments were performed in triplicate on transwells derived from samples obtained from two different patients. […]

[4] = confluent fibroblasts, AV.GFP3ori MOI 1000, 96 hours post-infection, brefeldin A 10 μg/ml, vinblastine 22 μM, cytochalasin B 1 μM, NH4Cl 2 mM, chloroquine 20 μm, LLnL 400 μM, Z-LLL 4 μM

Structure (SMILES) | rAAV transduction (GFP expression) compared to untreated rAAV infected cells [1, 4] | rAAV transduction from the apical (mucosal) surface, in words [3] | also measured
C[C@H]1CCC/C=C/[C@@H]2C[C@H](O)C[C@H]2[C@H](O)/C=C/C(=O)O1 [BFA, brefeldin A] | significant enhancement of rAAV transduction | – | –
O=C(O)CN(CCOCCOCCN(CC(=O)O)CC(=O)O)CC(=O)O [EGTA] | – | – | increase in persistence of AAV DNA [2]: less than 4 fold
C[C@H](NC(=O)[C@@H](N)Cc1cnc[nH]1)C(=O)O [H-His-Ala-OH] (H-His-Ala-OH) | – | – | rAAV transduction from the basolateral surface with ubiquitin ligase (E3) inhibitors [3]: enhanced rAAV transduction
CC(C)C[C@H](N)C(=O)N[C@@H](C)C(=O)O [H-Leu-Ala-OH] (H-Leu-Ala-OH) | – | – | rAAV transduction from the basolateral surface with ubiquitin ligase (E3) inhibitors [3]: enhanced rAAV transduction
Cl.N [NH4Cl] | – | – | rAAV transduction (GFP expression) compared to untreated rAAV infected cells [1]: significantly inhibited rAAV transduction
CC[C@@]1(O)C(=O)OCc2c1cc1n(c2=O)Cc2cc3ccccc3nc2-1 [camptothecin] | – | none of these agents facilitated rAAV transduction from the apical surface | –
CCN(CC)CCCC(C)Nc1ccnc2cc(Cl)ccc12 (stereo not drawn) [chloroquine] | significantly inhibited rAAV transduction | – | –
C=C1[C@@H](C)[C@H]2[C@H](Cc3ccccc3)NC(=O)[C@]23OC(=O)/C=C/[C@H](O)CCC[C@@H](C)C/C=C/[C@H]3[C@@H]1O [cytochalasin B] | significant decrease in rAAV transduction | – | –
COc1cc([C@@H]2c3cc4c(cc3[C@@H](O[C@@H]3O[C@@H]5CO[C@@H](C)O[C@H]5[C@H](O)[C@H]3O)[C@H]3COC(=O)[C@H]23)OCO4)cc(OC)c1O [etoposide] | – | none of these agents facilitated rAAV transduction from the apical surface | –
O=c1c(-c2ccc(O)cc2)coc2cc(O)cc(O)c12 [genistein] | – | none of these agents facilitated rAAV transduction from the apical surface | –
NC(=O)NO [hydroxyurea] | – | none of these agents facilitated rAAV transduction from the apical surface | –
CC[C@]1(O)C[C@@H]2CN(CCc3c([nH]c4ccccc34)[C@@](C(=O)OC)(c3cc4c(cc3OC)N(C)[C@H]3[C@@](O)(C(=O)OC)[C@H](OC(C)=O)[C@]5(CC)C=CCN6CC[C@]43[C@@H]65)C2)C1 [vinblastine, vinblastine sulfate] | little effect on rAAV transduction; also recorded: did not inhibit rAAV-2 transduction | – | –
